PubChem BioAssay (NCI)
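Five compound concentrations were applied to cells in 96-well plates for 48 hours; endpoints were derived by simple linear interpolation of the resulting dose-response curve. At the GI50, growth is halved. Definition used: TGI = concentration required for complete inhibition of growth.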

Experiments:
Assay in all cases: NCI anticancer screen, dose series, 48 h
[1] = tested on: SK-MEL-2 melanoma
[2] = tested on: MOLT-4 leukemia
[3] = tested on: MDA-MB-231 breast
[4] = tested on: LOX IMVI melanoma
[5] = tested on: HCT-116 colon
[6] = tested on: RPMI-8226 leukemia
[7] = tested on: NCI/ADR-RES ovarian
[8] = tested on: SF-295 CNS
[9] = tested on: NCI-H522 lung
[10] = tested on: UO-31 renal
[11] = tested on: HCT-15 colon
[12] = tested on: SF-539 CNS
[13] = tested on: MALME-3M melanoma
[14] = tested on: OVCAR-4 ovarian
[15] = tested on: M14 melanoma
[16] = tested on: OVCAR-5 ovarian
[17] = tested on: SK-MEL-5 melanoma
[18] = tested on: 786-0 renal
[19] = tested on: DU-145 prostate
[20] = tested on: A549 NSCLC
[21] = tested on: EKVX NSCLC
[22] = tested on: SW-620 colon
[23] = tested on: OVCAR-8 ovarian
[24] = tested on: NCI-H226 lung
[25] = tested on: K-562 leukemia
[26] = tested on: HCC-2998 colon
[27] = tested on: COLO 205 colon
[28] = tested on: T-47D breast
[29] = tested on: SNB-75 CNS
[30] = tested on: SN12C renal
[31] = tested on: UACC-62 melanoma
[32] = tested on: SF-268 CNS
[33] = tested on: TK-10 renal
[34] = tested on: OVCAR-3 ovarian
[35] = tested on: HOP-62 NSCLC
[36] = tested on: KM12 colon
[37] = tested on: CAKI-1 renal
[38] = tested on: SR leukemia
[39] = tested on: PC-3 prostate
[40] = tested on: HT29 colon
[41] = tested on: SK-OV-3 ovarian
[42] = tested on: SNB-19 CNS
[43] = tested on: ACHN renal
[44] = tested on: BT-549 breast
[45] = tested on: CCRF-CEM leukemia
[46] = tested on: HOP-92 NSCLC
[47] = tested on: MCF7 breast
[48] = tested on: UACC-257 melanoma
[49] = tested on: HS 578T breast
[50] = tested on: NCI-H23 lung
[51] = tested on: MDA-MB-435
[52] = tested on: U251 CNS
[53] = tested on: IGROV1 ovarian
[54] = tested on: HL-60(TB) leukemia
[55] = tested on: SK-MEL-28 melanoma
[56] = tested on: A498 renal

Nc1ccn(C=C=CCO)c(=O)n1
GI50 [1]: > 1000 µM
TGI [1]: > 1000 µM
GI50 [2]: 38.8 µM
TGI [2]: > 1000 µM
GI50 [3]: > 1000 µM
TGI [3]: > 1000 µM
GI50 [4]: > 1000 µM
TGI [4]: > 1000 µM
GI50 [5]: > 1000 µM
TGI [5]: > 1000 µM
TGI [6]: > 1000 µM
GI50 [7]: > 1000 µM
TGI [7]: > 1000 µM
GI50 [8]: > 1000 µM
TGI [8]: > 1000 µM
GI50 [9]: > 1000 µM
TGI [9]: > 1000 µM
GI50 [10]: > 1000 µM
TGI [10]: > 1000 µM
GI50 [11]: > 1000 µM
TGI [11]: > 1000 µM
GI50 [12]: > 1000 µM
TGI [12]: > 1000 µM
GI50 [13]: > 1000 µM
TGI [13]: > 1000 µM
GI50 [14]: > 1000 µM
TGI [14]: > 1000 µM
GI50 [15]: > 1000 µM
TGI [15]: > 1000 µM
GI50 [16]: > 1000 µM
TGI [16]: > 1000 µM
GI50 [17]: > 1000 µM
TGI [17]: > 1000 µM
GI50 [18]: > 1000 µM
TGI [18]: > 1000 µM
GI50 [19]: > 1000 µM
TGI [19]: > 1000 µM
GI50 [20]: > 1000 µM
TGI [20]: > 1000 µM
GI50 [21]: > 1000 µM
TGI [21]: > 1000 µM
GI50 [22]: > 1000 µM
TGI [22]: > 1000 µM
TGI [23]: > 1000 µM
GI50 [24]: > 1000 µM
TGI [24]: > 1000 µM
GI50 [25]: > 1000 µM
TGI [25]: > 1000 µM
GI50 [26]: > 1000 µM
TGI [26]: > 1000 µM
GI50 [27]: > 1000 µM
TGI [27]: > 1000 µM
GI50 [28]: > 1000 µM
TGI [28]: > 1000 µM
GI50 [29]: > 1000 µM
TGI [29]: > 1000 µM
GI50 [30]: > 1000 µM
TGI [30]: > 1000 µM
GI50 [31]: > 1000 µM
TGI [31]: > 1000 µM
GI50 [32]: > 1000 µM
TGI [32]: > 1000 µM
GI50 [33]: > 1000 µM
TGI [33]: > 1000 µM
GI50 [34]: > 1000 µM
TGI [34]: > 1000 µM
GI50 [35]: > 1000 µM
TGI [35]: > 1000 µM
GI50 [36]: > 1000 µM
TGI [36]: > 1000 µM
GI50 [37]: > 1000 µM
TGI [37]: > 1000 µM
TGI [38]: > 1000 µM
GI50 [39]: > 1000 µM
TGI [39]: > 1000 µM
GI50 [40]: > 1000 µM
TGI [40]: > 1000 µM
GI50 [41]: > 1000 µM
TGI [41]: > 1000 µM
GI50 [42]: > 1000 µM
TGI [42]: > 1000 µM
GI50 [43]: > 1000 µM
TGI [43]: > 1000 µM
GI50 [44]: > 1000 µM
TGI [44]: > 1000 µM
TGI [45]: > 1000 µM
GI50 [46]: > 1000 µM
TGI [46]: > 1000 µM
GI50 [47]: > 1000 µM
TGI [47]: > 1000 µM
GI50 [48]: > 1000 µM
TGI [48]: > 1000 µM
GI50 [49]: > 1000 µM
TGI [49]: > 1000 µM
GI50 [50]: > 1000 µM
TGI [50]: > 1000 µM
GI50 [51]: > 1000 µM
TGI [51]: > 1000 µM
GI50 [52]: > 1000 µM
TGI [52]: > 1000 µM
GI50 [53]: > 1000 µM
TGI [53]: > 1000 µM
TGI [54]: 435 µM

COC(=O)[C@@H]1C=C[C@@H](C#N)n2c(=O)n(-c3ccccc3)c(=O)n21
TGI [2]: 67.1 µM
TGI [3]: 93.6 µM
TGI [4]: 48.4 µM
TGI [5]: > 100 µM
TGI [6]: 73.3 µM
TGI [7]: 68 µM
TGI [8]: > 100 µM
TGI [9]: 32.4 µM
TGI [10]: > 100 µM
TGI [11]: > 100 µM
TGI [12]: 65.3 µM
TGI [14]: > 100 µM
TGI [15]: > 100 µM
TGI [16]: > 100 µM
TGI [17]: > 100 µM
TGI [18]: 84.7 µM
TGI [19]: > 100 µM
TGI [21]: > 100 µM
TGI [55]: > 100 µM
TGI [22]: > 100 µM
TGI [23]: 57.8 µM
TGI [24]: 40.4 µM
TGI [25]: > 100 µM
TGI [26]: > 100 µM
TGI [27]: > 100 µM
TGI [28]: 94.1 µM
TGI [29]: 79 µM
TGI [30]: 95 µM
TGI [31]: > 100 µM
TGI [56]: > 100 µM
TGI [32]: > 100 µM
TGI [33]: > 100 µM
TGI [34]: 58.9 µM
TGI [35]: 56.2 µM
TGI [36]: 73.2 µM
TGI [37]: > 100 µM
TGI [38]: 47.4 µM
TGI [40]: 93.2 µM
TGI [41]: > 100 µM
TGI [42]: > 100 µM
TGI [43]: > 100 µM
TGI [44]: > 100 µM
TGI [45]: 51.3 µM
TGI [46]: > 100 µM
TGI [47]: > 100 µM
TGI [48]: > 100 µM
TGI [49]: > 100 µM
TGI [50]: > 100 µM
TGI [51]: > 100 µM
TGI [52]: > 100 µM
TGI [53]: > 100 µM
